Earlier results on 2 molecules are cited in patent US20040253138A1, “Plasmon enhanced body treatment and bacterial management” (American Environmental Systems, Inc., priority 2003, published 2004).

SMILES strings stand for the structures. Read-outs that look alike come from different tables or passages of the source.

The test system of the data set is E. coli (E. coli-B (SR-9) and E. coli K-12). As to conditions: one hour exposure.

As to `[Ag+]` [silver], the logs of inactivation (30 ppb silver) is on record as 2.87 logs.
For `OO` [hydrogen peroxide], the logs of inactivation (30 ppm hydrogen peroxide) is listed as 0.65 logs.
